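Interpolation was linear, between the two tested concentrations surrounding the appropriate level; five concentrations were tested over 48 hours in 96-well plates. At the GI50, growth is halved. TGI marks complete inhibition of growth.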
Tests used:
Experiment in all cases: NCI-60 cell line screen, 48 h; in the data active means GI50 below about 0.43 µM; inactive means the rest
786-0 renal = system: 786-0 renal
A498 renal = system: A498 renal
A549 NSCLC = system: A549 NSCLC
ACHN renal = system: ACHN renal
CAKI-1 renal = system: CAKI-1 renal
COLO 205 colon = system: COLO 205 colon
DU-145 prostate = system: DU-145 prostate
EKVX NSCLC = system: EKVX NSCLC
HCC-2998 colon = system: HCC-2998 colon
HCT-116 colon = system: HCT-116 colon
HL-60(TB) leukemia = system: HL-60(TB) leukemia
HOP-62 NSCLC = system: HOP-62 NSCLC
HT29 colon = system: HT29 colon
K-562 leukemia = system: K-562 leukemia
KM12 colon = system: KM12 colon
M14 melanoma = system: M14 melanoma
MCF7 breast = system: MCF7 breast
MDA-MB-231 breast = system: MDA-MB-231 breast
MDA-MB-435 = system: MDA-MB-435
MDA-N = system: MDA-N
MOLT-4 leukemia = system: MOLT-4 leukemia
NCI-H226 lung = system: NCI-H226 lung
NCI-H460 lung = system: NCI-H460 lung
OVCAR-3 ovarian = system: OVCAR-3 ovarian
OVCAR-4 ovarian = system: OVCAR-4 ovarian
OVCAR-5 ovarian = system: OVCAR-5 ovarian
PC-3 prostate = system: PC-3 prostate
RPMI-8226 leukemia = system: RPMI-8226 leukemia
RXF 393 renal = system: RXF 393 renal
SF-295 CNS = system: SF-295 CNS
SK-MEL-2 melanoma = system: SK-MEL-2 melanoma
SK-MEL-28 melanoma = system: SK-MEL-28 melanoma
SK-MEL-5 melanoma = system: SK-MEL-5 melanoma
SK-OV-3 ovarian = system: SK-OV-3 ovarian
SN12C renal = system: SN12C renal
SNB-19 CNS = system: SNB-19 CNS
SNB-75 CNS = system: SNB-75 CNS
SW-620 colon = system: SW-620 colon
T-47D breast = system: T-47D breast
TK-10 renal = system: TK-10 renal
U251 CNS = system: U251 CNS
UACC-257 melanoma = system: UACC-257 melanoma
UACC-62 melanoma = system: UACC-62 melanoma
UO-31 renal = system: UO-31 renal
HCT-15 colon = system: HCT-15 colon
HOP-92 NSCLC = system: HOP-92 NSCLC
HS 578T breast = system: HS 578T breast
IGROV1 ovarian = system: IGROV1 ovarian
LOX IMVI melanoma = system: LOX IMVI melanoma
MALME-3M melanoma = system: MALME-3M melanoma
NCI-H23 lung = system: NCI-H23 lung
NCI-H522 lung = system: NCI-H522 lung
NCI/ADR-RES ovarian = system: NCI/ADR-RES ovarian
OVCAR-8 ovarian = system: OVCAR-8 ovarian
SF-268 CNS = system: SF-268 CNS
SF-539 CNS = system: SF-539 CNS
SR leukemia = system: SR leukemia
BT-549 breast = system: BT-549 breast
CCRF-CEM leukemia = system: CCRF-CEM leukemia

COP(=O)(OC)C(O)CC(C)C (stereo not given)
> 100 µM: TGI (786-0 renal) | TGI (A498 renal) | TGI (A549 NSCLC) | TGI (ACHN renal) | TGI (CAKI-1 renal) | TGI (COLO 205 colon) | TGI (DU-145 prostate) | TGI (EKVX NSCLC) | TGI (HCC-2998 colon) | TGI (HCT-116 colon) | TGI (HL-60(TB) leukemia) | TGI (HOP-62 NSCLC) | TGI (HT29 colon) | TGI (K-562 leukemia) | TGI (KM12 colon) | TGI (M14 melanoma) | TGI (MCF7 breast) | TGI (MDA-MB-231 breast) | TGI (MDA-MB-435) | TGI (MDA-N) | TGI (MOLT-4 leukemia) | TGI (NCI-H226 lung) | TGI (NCI-H460 lung) | TGI (OVCAR-3 ovarian) | TGI (OVCAR-4 ovarian) | TGI (OVCAR-5 ovarian) | TGI (PC-3 prostate) | TGI (RPMI-8226 leukemia) | TGI (RXF 393 renal) | TGI (SF-295 CNS) | TGI (SK-MEL-2 melanoma) | TGI (SK-MEL-28 melanoma) | TGI (SK-MEL-5 melanoma) | TGI (SK-OV-3 ovarian) | TGI (SN12C renal) | TGI (SNB-19 CNS) | TGI (SNB-75 CNS) | TGI (SW-620 colon) | TGI (T-47D breast) | TGI (TK-10 renal) | TGI (U251 CNS) | TGI (UACC-257 melanoma) | TGI (UACC-62 melanoma) | TGI (UO-31 renal)

COc1cccc(N(CN2C(=O)CCC2C(=O)O)C(C)=O)c1 (stereo not given)
> 100 µM: TGI (786-0 renal) | TGI (A498 renal) | TGI (A549 NSCLC) | TGI (ACHN renal) | TGI (CAKI-1 renal) | TGI (COLO 205 colon) | TGI (DU-145 prostate) | TGI (EKVX NSCLC) | TGI (HCC-2998 colon) | TGI (HCT-116 colon) | TGI (HCT-15 colon) | TGI (HL-60(TB) leukemia) | TGI (HOP-62 NSCLC) | TGI (HOP-92 NSCLC) | TGI (HS 578T breast) | TGI (HT29 colon) | TGI (IGROV1 ovarian) | TGI (K-562 leukemia) | TGI (KM12 colon) | TGI (LOX IMVI melanoma) | TGI (M14 melanoma) | TGI (MCF7 breast) | TGI (MDA-MB-231 breast) | TGI (MDA-MB-435) | TGI (MDA-N) | TGI (MOLT-4 leukemia) | TGI (NCI-H226 lung) | TGI (NCI-H460 lung) | TGI (NCI-H522 lung) | TGI (NCI/ADR-RES ovarian) | TGI (OVCAR-3 ovarian) | TGI (OVCAR-4 ovarian) | TGI (OVCAR-5 ovarian) | TGI (OVCAR-8 ovarian) | TGI (PC-3 prostate) | TGI (RPMI-8226 leukemia) | TGI (RXF 393 renal) | TGI (SF-268 CNS) | TGI (SF-295 CNS) | TGI (SK-MEL-2 melanoma) | TGI (SK-MEL-28 melanoma) | TGI (SK-MEL-5 melanoma) | TGI (SK-OV-3 ovarian) | TGI (SN12C renal) | TGI (SNB-19 CNS) | TGI (SNB-75 CNS) | TGI (SR leukemia) | TGI (SW-620 colon) | TGI (T-47D breast) | TGI (TK-10 renal) | TGI (U251 CNS) | TGI (UACC-257 melanoma) | TGI (UACC-62 melanoma) | TGI (UO-31 renal)
> 100000 nM: TGI (MALME-3M melanoma) | TGI (NCI-H23 lung) | TGI (SF-539 CNS)

CCCCCCCCC(=O)OCC(CS[As](C)C)OC(=O)CCCCCCCC (stereo not given)
10 µM: TGI (OVCAR-5 ovarian)
12.9 µM: TGI (K-562 leukemia)
25.5 µM: TGI (NCI-H226 lung)
3.62 µM: TGI (ACHN renal)
15.3 µM: TGI (UACC-257 melanoma)
19.1 µM: TGI (BT-549 breast)
1500 nM: TGI (NCI-H23 lung)
11.5 µM: TGI (CCRF-CEM leukemia)
10.7 µM: TGI (A498 renal) | TGI (RXF 393 renal)
13.8 µM: TGI (KM12 colon)
58.9 µM: TGI (SK-MEL-2 melanoma)
5.7 µM: TGI (LOX IMVI melanoma)
20.1 µM: TGI (T-47D breast)
41.7 µM: TGI (A549 NSCLC)
> 67.6 µM: TGI (SK-OV-3 ovarian)
23.5 µM: TGI (SNB-75 CNS)
2.64 µM: TGI (DU-145 prostate)
11.3 µM: TGI (HCT-116 colon)
5.41 µM: TGI (SR leukemia)
14.9 µM: TGI (SW-620 colon)
1280 nM: TGI (SF-539 CNS)
0.388 µM: TGI (SK-MEL-5 melanoma)
13 µM: TGI (U251 CNS)
17.3 µM: TGI (HT29 colon)
> 39.9 µM: TGI (UO-31 renal)
42.9 µM: TGI (SNB-19 CNS)
8.2 µM: TGI (MCF7 breast)
708 nM: TGI (MALME-3M melanoma)
18.4 µM: TGI (MDA-MB-231 breast)
19 µM: TGI (EKVX NSCLC)
38.4 µM: TGI (OVCAR-4 ovarian)
21.8 µM: TGI (PC-3 prostate)
24.8 µM: TGI (COLO 205 colon)
2.16 µM: TGI (RPMI-8226 leukemia)
inactive: GI50 (786-0 renal) 1160 nM | GI50 (A498 renal) 2380 nM | GI50 (A549 NSCLC) 8.36 µM | GI50 (ACHN renal) 602 nM | GI50 (BT-549 breast) 4.78 µM | GI50 (COLO 205 colon) 557 nM | GI50 (DU-145 prostate) 747 nM | GI50 (EKVX NSCLC) 2450 nM | GI50 (HCT-15 colon) 629 nM | GI50 (HOP-62 NSCLC) 15.1 µM | GI50 (HOP-92 NSCLC) 1930 nM | GI50 (HS 578T breast) 1390 nM | GI50 (HT29 colon) 1510 nM | GI50 (IGROV1 ovarian) 5.1 µM | GI50 (KM12 colon) 2770 nM | GI50 (LOX IMVI melanoma) 1090 nM | GI50 (M14 melanoma) 831 nM | GI50 (MCF7 breast) 477 nM | GI50 (MDA-MB-231 breast) 2700 nM | GI50 (NCI-H226 lung) 5.81 µM | GI50 (NCI-H23 lung) 593 nM | GI50 (NCI-H460 lung) 21.7 µM | GI50 (NCI-H522 lung) 1110 nM | GI50 (NCI/ADR-RES ovarian) 890 nM | GI50 (OVCAR-4 ovarian) 9.89 µM | GI50 (OVCAR-5 ovarian) 3.22 µM | GI50 (OVCAR-8 ovarian) 1750 nM | GI50 (PC-3 prostate) 2600 nM | GI50 (RXF 393 renal) 548 nM | GI50 (SF-268 CNS) 3.53 µM | GI50 (SF-295 CNS) 3.66 µM | GI50 (SF-539 CNS) 490 nM | GI50 (SK-MEL-2 melanoma) 13.2 µM | GI50 (SK-MEL-28 melanoma) 1120 nM | GI50 (SK-OV-3 ovarian) 16.5 µM | GI50 (SN12C renal) 2080 nM | GI50 (SNB-19 CNS) 11.5 µM | GI50 (SNB-75 CNS) 5.44 µM | GI50 (SR leukemia) 1030 nM | GI50 (U251 CNS) 2450 nM | GI50 (UACC-257 melanoma) 1400 nM | GI50 (UACC-62 melanoma) 904 nM | GI50 (UO-31 renal) 3.46 µM
3.07 µM: TGI (NCI/ADR-RES ovarian)
0.652 µM: TGI (MDA-MB-435)
15 µM: TGI (UACC-62 melanoma)
0.583 µM: TGI (OVCAR-3 ovarian)
> 48.4 µM: TGI (IGROV1 ovarian)
25.9 µM: TGI (SF-268 CNS)
53.1 µM: TGI (HOP-62 NSCLC)
58.3 µM: TGI (NCI-H460 lung)
> 40.1 µM: TGI (786-0 renal)
12.6 µM: TGI (SN12C renal)
2.21 µM: TGI (MOLT-4 leukemia)
1.83 µM: TGI (HCC-2998 colon)
5.3 µM: TGI (OVCAR-8 ovarian)
18.3 µM: TGI (HOP-92 NSCLC)
1.78 µM: TGI (HL-60(TB) leukemia)
active: GI50 (CAKI-1 renal) 220 nM | GI50 (CCRF-CEM leukemia) 396 nM | GI50 (HCC-2998 colon) 356 nM | GI50 (HCT-116 colon) 373 nM | GI50 (HL-60(TB) leukemia) 285 nM | GI50 (K-562 leukemia) 342 nM | GI50 (MALME-3M melanoma) 53.1 nM | GI50 (MDA-MB-435) 196 nM | GI50 (MOLT-4 leukemia) 326 nM | GI50 (OVCAR-3 ovarian) 191 nM | GI50 (RPMI-8226 leukemia) 330 nM | GI50 (SK-MEL-5 melanoma) 163 nM | GI50 (SW-620 colon) 349 nM | GI50 (T-47D breast) 267 nM | GI50 (TK-10 renal) 364 nM
16.2 µM: TGI (SK-MEL-28 melanoma)
12.7 µM: TGI (M14 melanoma)
3.14 µM: TGI (TK-10 renal)
10.4 µM: TGI (HCT-15 colon)
19.4 µM: TGI (SF-295 CNS)
1.12 µM: TGI (CAKI-1 renal)

— PubChem BioAssay (NCI)
